For one data set, the system named is HT29 tumor cells. As to the kind of experiment: In vitro cell proliferation inhibition (CellTiterGlo). It is filed as cell-based. As to conditions: Homo sapiens, HT-29. How it is done:
The ability of compounds to inhibit the proliferation of HT29 tumor cells was measured.
The assay compound was dissolved in 100% DMSO to prepare 10 mM stock solution.
• a) UV light of a biological safety cabin was turned on, and 30 minutes were counted down; • b) In a 37° C. water bath, RPMI1640 medium and trypsin were preheated; • c) After completion of the UV irradiation, the biological safety cabin was opened. The preheated medium, trypsin and phosphate buffered saline (PBS), etc. were wiped with alcohol and placed in the biological safety cabin; • d) HT29 cells were removed from the incubator, and the old medium was removed in biological safety cabin. 10 ml of PBS was added. […] The culture vessel was shaken horizontally so that the trypsin evenly covered the cells at the bottom, and placed in an incubator for 2 minutes; • f) Cell digestion was stopped with complete medium, and the cell suspension was pipetted to homogeneity and counted; • g) According to the result of cell counting, the density of cell suspension was adjusted to 1500 cells per well, and the cell suspension was seeded at 50 μl per well; • h) The stock solution of compounds was serially diluted in DMSO solution, and compounds were added to cell plate using Tecan; • i) The compound-added cell plate and CellTiterGlo were equilibrated at room temperature, and 25 microliters of CellTiterGlo was then added to each well. […]
(In ATP-based viability assays light output follows the ATP content of the culture.)

A short description of data set [1]: Solubility study (HPLC-UV, 24 h shaking). In kind it is physicochemical. As to conditions: 25 °C, aqueous buffer, kinetic from dmso stock, 2% DMSO, max 200 μM. How it is done:
The solubility of a compound was determined to evaluate the solubility property of the compound.
• 1) Buffer A (pH 2.0): 50 mM phosphate buffer, pH 2.0; Buffer B (pH 6.5): 50 mM phosphate buffer, pH 6.5; Buffer C (pH 7.4): 50 mM phosphate buffer, pH 7.4; • 2) Preparation of standard solution: • a) 50% acetonitrile solution and 50% buffer solution were mixed to obtain a diluent; • b) 10 mM (10 μL/compound) compound stock solution was added to the diluent (490 μL/compound) to obtain 200 μM detection standard solution; • c) The 200 μM UV detection standard solution was diluted with 10-fold and 200-fold volume of diluents to obtain 20 μM and 1 μM UV standard solutions, respectively; • d) 1 μM, 20 μM, and 200 μM UV standard solutions were used as standard solutions for solubility assay.
• a) The compound was dissolved in DMSO to prepare a 10 mM stock solution. […] The pH of the corresponding solubility solutions was 2.0, 6.5 and 7.4, respectively. The theoretical maximum concentration of the assay compound is 200 μM with 2% DMSO; • c) The plate was shaken in a shaker at room temperature (25±2° C.) at 600 rpm for 24 hours; • d) 200 μL of the solution was pipetted from the 96-well plate, filtered with suction by a vacuum suction filtration device, and transferred into a new 96-well plate as an assay sample; • e) The compound concentration was determined using HPLC-UV.
• f) Three UV standard solutions from low concentration to high concentration (1 μM, 20 μM, 200 μM) were injected into HPLC, and then the assay sample of the compound to be assayed was injected; • g) The UV chromatographic peaks were integrated, and the solubility of the sample was calculated.

Data set [2] relates to human melanoma A375 cells. As to the kind of experiment: In vivo efficacy in mouse model of human melanoma A375. As to conditions: for TGI: PO, BID, day 21, A375 xenograft nude mouse. How it is done: The anti-tumor effect of WX001 was evaluated using a subcutaneous xenograft tumor model of human melanoma A375 cells in nude mouse.
• Species: mouse • Strain: BALB/c nude mouse • Age: 6-8 weeks old • Gender: female • Body weight: 18-22 grams • Supplier: Vital River Laboratory Animal Technology Co., Ltd.
• 1) Assay cells and culture: Human melanomaA375 cells were cultured in monolayer in vitro. The culture conditions were DMEM medium plus 10% fetal bovine serum, and a 37° C. 5% CO2 incubator. Routine digestion with trypsin-EDTA was performed twice a week for passage. When the cell saturation was 80%-90% and the amount reached the requirement, the cells were harvested, counted, and inoculated; • 2) Tumor tissue inoculation and grouping: 0.1 mL (5×10^5) of A375 cells were subcutaneously inoculated into the right armpit of each mouse. When the average tumor volume reached 170 mm^3, the animals were randomly divided into 4 groups and the administration was started.
• 3) Daily observation of assay animals: The development of this assay protocol and any modifications were evaluated and approved by the Institutional Animal Care and Use Committee (IACUC). The use and welfare of assay animals were carried out in accordance with the regulations of the Association for Assessment and Accreditation of Laboratory Animal Care (AAALAC). Animals were monitored daily for health and death. Routine examinations included observation of tumor growth and the effects of drug treatment on the animals' daily behavior such as behavioral activities, food and water intake (visual inspection only), weight changes (weight measurements twice a week), appearance signs or other abnormalities. Animal deaths and side effects in each group were recorded based on the number of animals in each group.
• a) Vehicle group: 5% DMSO+95% (20% HP-β-CD). • b) Assay compound group: A quantitative amount of the assay compound was weighed in a formulation bottle. A corresponding volume of DMSO was added and then the mixture was vortexed to obtain a clear solution. A corresponding volume of 20% HP-β-CD was added and then the mixture was vortexed to obtain a homogeneous suspension.
• a) Tumor diameter was measured twice a week with a vernier caliper. The calculation formula of tumor volume was: TV=1/2×a×b^2, wherein a and b represent the long and short diameters of tumor, respectively; • b) The tumor-inhibitory efficacy of the compound was evaluated by TGI (%). TGI (%) reflected the inhibition rate of tumor growth. TGI (%) was calculated as follows: TGI (%)={[1−(average tumor volume at the end of administration of a treatment group−average tumor volume at the beginning of administration of this treatment group)]/(average tumor volume at the end of treatment in a solvent control group−average tumor volume at the beginning of treatment in the solvent control group)}×100%.
On the technique in general: A xenograft is tissue or cells of one species grown in another, often human tumour cells in immunodeficient mice.

In brackets after ≈: the same amount, converted by molar mass. Like-named read-outs stand apart in the source and are kept apart here. Where only a bound is given, the exact number is not on record here.

Broadly, the IC50 is the concentration that inhibits the measured activity by half. The solubility is the dissolved amount per volume that the medium holds.

In the data set on HT29 tumor cells, `Cc1cccc(CN2C(=O)c3nc(-c4nc(Nc5ccnn5C)ncc4C)sc3C2(C)C)n1` [WX001] returned an IC50 of 21 nM. The solubility at 24 h in data set [1] (50 mM phosphate buffer pH 2.0, 25±2° C., read-out: Solubility pH = 2.0) was over 200 µM; in data set [1] (50 mM phosphate buffer pH 6.5, 25±2° C., read-out: Solubility pH = 6.5) it was 6.2 µM (≈ 2.86 µg/mL); in data set [1] (50 mM phosphate buffer pH 7.4, 25±2° C., read-out: Solubility pH = 7.4), 7.08 µM (≈ 3.26 µg/mL). For the same molecule, the values for the TGI in data set [2] (5 mg/kg), in data set [2] (10 mg/kg) and in data set [2] (20 mg/kg) were 36%, 81% and 104%, respectively. In addition, in data set [2] (5, 10, 20 mg/kg PO BID, during the administration), the tolerance result is on record as “the tolerance is good”. For the same molecule, the “body weight of animals” value in data set [2] (5, 10, 20 mg/kg PO BID, to the 21st day) was “did not decrease significantly”.

The record behind these values is patent publication US20240300975A1, “DIMETHYL-SUBSTITUTED THIAZOLOLACTAM COMPOUND AND USE THEREOF” (D3 Bio (Wuxi) Co., Ltd., priority 2021, published 2024).
